Legend:
[1] = system: non-malignant Caco-2 cells; assay: Cell counting, Caco-2; assay type: cell-based, human; settings: 54 μM, 5 d
Method: FIG. 9. The colon cancer cell lines were grown for 5 d either with vehicle control DMSO (gray symbols) or 54 μM BKAc-Puro (red and blue symbols), and cell number was determined at the indicated time points.
Cell number was determined by cell counting using improved Neubauer hemacytometer. Cell viability was calculated as the number of viable cells divided by the total number of cells using Trypan Blue Stain (Invitrogen) to distinguish non-viable cells. Data were obtained from duplicated samples with quadruplicate measurements. MTS based cell viability assay was performed using CellTiter 96 Aqueous Cell Proliferation Assay (Promega) according to the manufacturer's instruction. Either 1 μl of DMSO alone or variable concentrations of BKAc-Puro or Puro in DMSO were added to the cell lines seeded at 5×10^4 cells per well in 96-well tissue culture plates in 100 μl of the growth medium, followed by 3-5 d incubation at 37° C. with 5% CO2 atmosphere. […] After additional 2-3 h incubation, the absorbance of the formazan at 490 nm was measured by the microplate reader. […] Determination of non-viable cells using PI staining was performed by adding 1 μg/ml of PI solution (Sigma) to the cell culture, prior to the examination under fluorescence microscopy (Axiovert 3, Carl Zeiss) through a×32 objective equipped with a digital imaging processor (Infinity 3, Lumenera).

[2] = system: Puro-incorporated proteins in HCT116, HT29, CCD841-CoN and Caco-2 cells; assay: Immunoblotting of Puro-incorporated proteins in cell lysates; assay type: cell-based, human; settings: 16.9 μM, 20 h
Method: (§1) FIG. 27. Levels of Puro-incorporated proteins in the cells were monitored by immunoblotting. Indicated cell lines were treated either with vehicle control DMSO or Boc-KAc-Puro (16.9 μM) in the presence or absence of TSA (0.5 μM) for 20 h, followed by preparation of cell lysates. The lower panel (anti-α-Tubulin) serves as a loading control.
as §1, with “28.” for “27.”, “Puro (2.1” for “Boc-KAc-Puro (16.9”, “16” for “20”, “lysates. […]” for “lysates.”
Cultured cells or tissue samples were sonicated in RIPA lysis buffer (1% NP-40, 0.1% SDS, 50 mM Tris-HCl pH 7.4, 150 mM NaCl, 0.5% sodium deoxycholate, 1 mM EDTA) supplemented with PMSF and protease inhibitor cocktail (Roche) on ice followed by clarification. Protein lysates were separated on sodium dodecyl sulfate-polyacrylamide gels and transferred onto nitrocellulose membranes (Whatman). The primary antibodies used were anti-puromycin (3RH11, KeraFAST) and anti-α-tubulin (Sigma-Aldrich). Proteins of interest were detected with anti-mouse secondary antibody by chemiluminescence (ECL Kit, GE Healthcare Life Sciences).

Compound: COc1ccc(CC(NC(=O)C(CCCCNC(C)=O)NC(=O)OC(C)(C)C)C(=O)NC2C(O)[C@H](n3cnc4c(N(C)C)ncnc43)O[C@@H]2CO)cc1 (stereo partly drawn) [BKAc-Puro, N-[3′-(α-Amino-p-methoxyhydrocinnamamido)-3′-deoxy-N,N-dimethyldenosinyl)-N-α-(t-butoxycarbonyl]-N-ε-acetyl-L-lysineamide]
- Cell proliferation (cell number) [1]: allowed them to proliferate to confluency
- Intensity of Puro incorporation, malignant versus normal and non-malignant cells [2]: substantially greater in malignant cancer cells
- Intensity of Puro incorporation in the presence of TSA ([2]; TSA 0.5 μM): compromised intensity

Reference: patent US20160184459A1, “CANCER CELL SPECIFIC IMAGING PROBES AND METHODS OF USE” (THE RESEARCH FOUNDATION FOR THE STATE UNIVERSITY OF NEW YORK, priority 2013, published 2016)
